Earlier results in patent US20240016419A1, “ELECTROCHEMICAL GLUCOSE SENSING BY EQUILIBRIUM GLUCOSE BINDING TO GENETICALLY ENGINEERED GLUCOSE BINDING PROTEINS” (Cercacor Laboratories, Inc., priority 2022, published 2024).

binding constant shift (A213R versus wild-type GGBP, from 0.2 μM to 1 mM): 5000 fold
Kd (binding to glucose, read-out: binding constant): 1000 µM
Substance: A213R: GGBP with Alanine residue at the 213 position changed to an Arginine residue
